Experiment in all cases: Test of plant growth inhibiting action on sprouted seeds grown 7 days in a dispersion of wettable powder, visual evaluation
What all share (format): in vivo

For one experiment, the system named is Echinochloa crus-galli. Conditions: 168 h, 20% wettable powder dispersed in water, 25°C, lighted thermostat, visual grade 1-5, read-out: Growth Inhibition, Seed of Plant Echinochloa crus-galli (converted). From the text: (§1) Test Example (Test of Plant Growth Inhibiting Action)
(§2) 50 parts of talc, 25 parts of bentonite, 2 parts of Sorpol-9047 (surface active agent manufactured by Toho Chemical Co., Ltd.) and 3 parts of Sorpol-5039 (same as above) were thoroughly mixed to form a carrier. 50 weight parts of test compound was mixed with 200 weight parts of the carrier to prepare a 20% wettable powder. The wettable powder was dispersed in pure water to adjust the amount thereof to a definite concentration (see Table If to 17). Seeds of Oryza sativa or rice plant, Echinochloa crus-galli (a kind of millet) and Raphanus sativus (a kind of radish) all of which were forcedly sprouted in a separate dish, were put in the dispersion of wettable powder and grown for 7 days in a lighted thermostat at 25°C and the degree of growth was visually evaluated in accordance with the standard set forth below.
(§3) Standard of Evaluation in Growth Inhibition
(§4) • no influence: 1 • about 25% growth inhibition: 2 • about 50% growth inhibition: 3 • about 75% growth inhibition: 4 • about 100% growth inhibition: 5

The next experiment concerns Oryza sativa. Conditions: 168 h, 20% wettable powder dispersed in water, 25°C, lighted thermostat, visual grade 1-5, read-out: Growth Inhibition, Seed of Plant Oryza sativa (converted).
Source text: as §1, §2, §3, §4

Another experiment deals with Raphanus sativus. As to conditions: 168 h, 20% wettable powder dispersed in water, 25°C, lighted thermostat, visual grade 1-5, read-out: Growth Inhibition, Seed of Plant Raphanus sativus (converted).
Source text: as §1, §2, §3, §4

The structures appear in SMILES notation.

As to `C=C(COc1ccc(C=Cc2ccccc2)cc1)C(=O)OC` [Compound 4-28], the results for the inhibition at 20 ppm with Echinochloa crus-galli (Concentration 20 ppm), in the experiment with Oryza sativa (Concentration 20 ppm) and with Raphanus sativus (Concentration 20 ppm) were 75%, 25% and 0%, respectively. Further, the results for the inhibition at 100 ppm in the experiment with Echinochloa crus-galli (Concentration 100 ppm), in the experiment on Oryza sativa (Concentration 100 ppm) and with Raphanus sativus (Concentration 100 ppm) were 75%, 25% and 0%, respectively.

The values are drawn from EP0117412A1, “Propene derivatives and their use as plant growth inhibitors” (DAICEL CHEMICAL INDUSTRIES, LTD., priority 1983, dated 1984).
